Laboratory results from patent US6406709B1, “Method for inhibiting nematocyst discharge” (Nidaria Technology Ltd., priority 1997, dated 2002).

Assays:
[1] = tested on: isolated nematocyst capsules; conditions: 50 mM CaCl2; cited from earlier work
[2] = tested on: Chrysaora quinquecirrha nematocysts; assay: Nematocyst discharge into human skin slides, Monterey Bay Aquarium; conditions: glycerol plus 0.2% diphenhydramine, exposure 10 to 15 seconds
Experimental: (§1) Normal human skin (HS) was obtained from neonatal elective circumcision. The skin was immediately placed into sterile phosphate buffered saline (PBS) containing antibiotic/antimycotic. The tissue was frozen embedded in Tissue-Tek™. The tissue was then sectioned into 50 μm sections using a cryostat. The sections were attached to glass slides coated with polylysine and maintained at −70° C. until time of use. All sections were examined to ensure that they were perpendicular to the plane of the epidermis, exposing cross-sections of epidermis, dermis and sub-cutaneous tissue.
(§2) The slides prepared and frozen as described above were thawed at room temperature. The slides were submersed in sea water for approximately 10 seconds and then attached to jellyfish or sea anemones tentacles for approximately 10 seconds. The tentacles were detached, the slides washed two times with PBS, and blocked using 5% Fetal Bovine serum (FBS), and 0.1% Triton X100 in PBS (blocking solution). All washing and incubation steps were conducted on a tilting shaker at room temperature. The slides were incubated in 10 mL of blocking solution containing a 1:2,500 dilution of the anti-toxin antibody for one hour. After incubation, the slides were washed five times for five minutes each wash with 100 mL of 0.1% TritonX100 in PBS (Wash solution). […]

[3] = tested on: Pelagia noctiluca nematocysts; assay: as above; conditions: glycerol plus 0.2% diphenhydramine, exposure 10 to 15 seconds
Experimental: as §1, §2

[4] = tested on: Auzelia nematocysts; assay: Nematocyst discharge into human skin slides; conditions: N=3 test, 3 each control; control discharged less than 100
Experimental: as §1, §2

[5] = tested on: nematocysts of jellyfish or sea anemone tentacles; assay: Artemia adhesion/paralysis test of nematocyst discharge by tentacle fragments in sea water; type: cell-based
Experimental: To initially test inhibition of nematocyst discharge, the following test was performed. It is typical behavior for jellyfish or sea anemone tentacles to adhere to and paralyze newly hatched nauplii of Artemia sp. The adhesion and subsequent paralysis is characteristic of nematocyst discharge by the tentacles. Small 2 to 3 mm fragments of jellyfish or sea anemone tentacles were prepared and placed in a 12-well plate containing filtered sea water. The tentacle fragments were washed by changing the filtered sea water three times. One mL of filtered sea water was left in each well after the final wash. […] The 6 wells without the antihistamine served as controls. Ten Artemia sp. were added to each well in a total volume of between 50 and 100 uL of filtered sea water. After 2 minutes, the number of attached or paralyzed Artemia in each well was measured.

Row | Compound | discharge of isolated nematocyst capsules [1] | decrease of nematocyst discharge [2] | reduction in nematocyst discharged [3] | decrease in nematocyst discharge [4] | effect on the number of Artemia paralyzed by nematocysts ([5]; 0.02% in sea water, versus sea water alone) | Artemia paralyzed by nematocysts, all wells together ([5]; out of 64 Artemia, 50 of 64 without antihistamine)
1 | [Ca+2].[Cl-].[Cl-] [CaCl2] | do not discharge | – | – | – | – | –
2 | CN(C)CCOC(c1ccccc1)c1ccccc1.Cl [diphenhydramine, diphenhydramine hydrochloride] | – | 2.5-5 fold | significant reduction | ten-fold decrease | significantly decreased | 11
